Patent publication US6984660B2, “P-thienylbenzylamides as agonists of angiotensin-(1-7) receptors, and methods of their preparation and use” (Aventis Pharma Deutschland GmbH, priority 2001, dated 2006)

What was measured:
[1] = test system: primarily cultivated endothelial cells derived from bovine aortas; assay: Test 2: functional assay, stimulation of intracellular cGMP production in endothelial cells; format: cell-based; details: for EC50: Bos taurus, Endothelial cell, production of intracellular cGMP, marker for NO production and release, radioimmunoassay; for stimulatory effect on cGMP after preincubation with a selective angiotensin-(1-7) receptor antagonist: preincubation with [D-Ala^7]-angiotensin-(1-7); for effect on the production of cGMP after preincubation with an AT1 receptor antagonist: preincubation with angiotensin II AT1 subtype antagonist, such as EXP3174; for effect on the production of cGMP after preincubation with an AT2 receptor antagonist: preincubation with angiotensin II AT2 subtype antagonist, such as PD 123,319
Experimental: The stimulatory effect of the compounds of formula (I) on the production of intracellular cGMP, which is a marker for the production and release of NO in endothelial cells, was measured on primarily cultivated endothelial cells derived from bovine aortas, as described, for example, in J. Pharmacol. Exp. Ther. (1992) 262:729-733, herein incorporated by reference.
After having been enzymatically digested (dispase II; Boehringer, Mannheim) from the bovine aorta, the endothelial cells were taken up in culture medium (Dulbecco's modified Eagle's Ham's F 12 medium 1:1 containing penicillin (10 U/L), streptomycin (10 ug/L), L-glutamine (1 mmol/L), glutathione and L-(+)-ascorbic acid (in each case 5 mg/L) and heat-inactivated fetal calf serum (20%)), washed once (centrifugation at 170×g, 10 min) and resuspended in culture medium. This cell suspension was seeded in 6-well plates (Nunc Intermed, Wiesbaden) (˜250 μg of protein or […] per well), with the wells then being filled with culture medium and the plates kept at 37° C. in an incubator which was moistened and gassed with 95% O2-5% CO2.
After confluence had been reached (6-8 days after seeding), the culture medium was removed and the cell monolayer was washed twice with warm HEPES/Tyrode's solution. After that, the cells were preincubated, at 37° C. for 15 min, in HEPES/Tyrode's solution containing IBMX (3-isobutyl-1-methylxanthine, 10^−4 mol/L, Serva, Heidelberg). The incubation was started by adding SOD (bovine erythrocyte superoxide dismutase, 3×10^−7 mol/L, Serva, Heidelberg) and the test substances of formula (I) at the given concentrations. After the appropriate incubation time, the incubation medium was aspirated and the cells which remained behind were immediately extracted in 1 N formic acid/acetone (v/v, 15:85) and scraped off. The resulting suspension was ultrasonicated (10 sec) and then centrifuged down (3000×g, 10 min). For the purpose of determining cGMP by means of radioimmunoassay (New England Nuclear, Boston, Mass.), the supernatant was lyophilized and the lyophilisate taken up in sodium acetate buffer (0.05 mol/L; pH 6.2). The content (pmol) of intracellular cGMP was related to mg of cell protein.

Compound | melting point [°C] | also measured
CNC(=O)NS(=O)(=O)c1sc(CC(C)C)cc1-c1ccc(CN(C(=O)c2ccco2)[C@H](C(=O)OC)C(C)C)cc1 [Example 14, Methyl 2-N-(2-furanoyl)-2-N-[4-[2-(methylaminocarbonylsulfonamido)-5-isobutyl-3-thienyl]benzyl]amino-3-methyl-L-butyrate] | 84 | –
CCCCOC(=O)NS(=O)(=O)c1sc(CC(C)C)cc1-c1ccc(CN(C(=O)c2ccco2)[C@H](C(=O)O)C(C)C)cc1 [Example 13, 2-N-(2-Furanoyl)-2-N-[4-[2-(n-butyloxycarbonylsulfonamido)-5-isobutyl-3-thienyl]benzyl]amino-3-methyl-L-butyric acid] | 93 | –
CCCCOC(=O)NS(=O)(=O)c1sc(CC(C)C)cc1-c1ccc(CN(C(=O)CCC(=O)O)[C@H](C(=O)O)C(C)C)cc1 [Example 17, 2-N-(3-Carboxypropionyl)-2-N-[4-[2-(n-butyloxycarbonylsulfonamido)-5-isobutyl-3-thienyl]benzyl]amino-3-methyl-L-butyric acid] | 66 | –
CNC(=O)NS(=O)(=O)c1sc(CC(C)C)cc1-c1ccc(CN(C(=O)c2ccco2)[C@H](C(=O)O)C(C)C)cc1 [Example 15, 2-N-(2-Furanoyl)-2-N-[4-[2-(methylaminocarbonylsulfonamido)-5-isobutyl-3-thienyl]benzyl]amino-3-methyl-L-butyric acid] | 134 | –
CNC(=O)NS(=O)(=O)c1sc(CC(C)C)cc1-c1ccc(CN(C(=O)CCC(=O)OC)[C@H](C(=O)OC)C(C)C)cc1 [Example 18] | 158 | –
CCNC(=O)NS(=O)(=O)c1sc(CC(C)C)cc1-c1ccc(CN(C(=O)c2ccccc2)[C@H](C(=O)OC)C(C)C)cc1 [Example 4, Methyl 2-N-benzoyl-2-N-[4-[2-(ethylaminocarbonylsulfonamido)-5-isobutyl-3-thienyl]benzyl]amino-3-methyl-L-butyrate] | 65 | EC50 [1]: 600 nM; stimulatory effect on cGMP after preincubation with a selective angiotensin-(1-7) receptor antagonist [1]: inhibited; effect on the production of cGMP after preincubation with an AT1 receptor antagonist [1]: not influenced; effect on the production of cGMP after preincubation with an AT2 receptor antagonist [1]: not influenced
CCNC(=O)NS(=O)(=O)c1sc(CC(C)C)cc1-c1ccc(CN(C(=O)c2ccccc2)[C@H](C(=O)OCC)C(C)C)cc1 [Example 5, Ethyl 2-N-benzoyl-2-N-[4-[2-(ethylaminocarbonylsulfonamido)-5-isobutyl-3-thienyl]benzyl]amino-3-methyl-L-butyrate] | 88 to 90 | –

Continued, in another order:

melting point [°C] | Compound | also measured
136 | CCNC(=O)NS(=O)(=O)c1sc(CC(C)C)cc1-c1ccc(CN(C(C)=O)[C@H](C(=O)O)C(C)C)cc1 [Example 11, 2-N-Acetyl-2-N-[4-[2-(ethylaminocarbonylsulfonamido)-5-isobutyl-3-thienyl]benzyl]amino-3-methyl-L-butyric acid] | –
81 | CCNC(=O)NS(=O)(=O)c1sc(CC(C)C)cc1-c1ccc(CN(C(C)=O)[C@H](C(=O)OCC)C(C)C)cc1 [Example 10, Ethyl 2-N-acetyl-2-N-[4-[2-(ethylaminocarbonylsulfonamido)-5-isobutyl-3-thienyl]benzyl]amino-3-methyl-L-butyrate] | –
149 | CCNC(=O)NS(=O)(=O)c1sc(CC(C)C)cc1-c1ccc(CN(C(=O)c2ccccc2)[C@H](C(=O)O)C(C)C)cc1 [Example 6, 2-N-Benzoyl-2-N-[4-[2-(ethylaminocarbonylsulfonamido)-5-isobutyl-3-thienyl]benzyl]amino-3-methyl-L-butyric acid] | –
130 | CCNC(=O)NS(=O)(=O)c1sc(CC(C)C)cc1-c1ccc(CN(C(C)=O)[C@H](C(=O)OC)C(C)C)cc1 [Example 9, Methyl 2-N-acetyl-2-N-[4-[2-(ethylaminocarbonylsulfonamido)-5-isobutyl-3-thienyl]benzyl]amino-3-methyl-L-butyrate] | EC50 [1]: 40 nM; stimulatory effect on cGMP after preincubation with a selective angiotensin-(1-7) receptor antagonist [1]: inhibited; effect on the production of cGMP after preincubation with an AT1 receptor antagonist [1]: not influenced; effect on the production of cGMP after preincubation with an AT2 receptor antagonist [1]: not influenced
